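Results reflect a 48-hour exposure of cells in 96-well plates to compound at five concentrations. At the GI50, growth is halved.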 The source made the active and inactive calls. Cut-off read from the data, not from the text of the source: active = GI50 up to about 1.1 µM and inactive = higher.
Legend:
Assay in all cases: inhibition of tumour cell growth, NCI panel, 48 h
SN12C = system: SN12C
UACC-62 = system: UACC-62
COLO 205 = system: COLO 205
NCI/ADR-RES = system: NCI/ADR-RES
NCI-H460 = system: NCI-H460
SR = system: SR
HT-29 = system: HT-29
SF-295 = system: SF-295
HCC 2998 = system: HCC 2998
M14 = system: M14
MDA-N = system: MDA-N
K562 = system: K562
NCI-H522 = system: NCI-H522
KM12 = system: KM12
SK-MEL-2 = system: SK-MEL-2
Hs-578T = system: Hs-578T
SK-OV-3 = system: SK-OV-3
BT-549 = system: BT-549
SF-539 = system: SF-539
MOLT-4 = system: MOLT-4

Compound	GI50 (SN12C)	GI50 (UACC-62)	GI50 (COLO 205)	GI50 (NCI/ADR-RES)	GI50 (NCI-H460)	GI50 (SR)	GI50 (HT-29)	GI50 (SF-295)	GI50 (HCC 2998)	GI50 (M14)	GI50 (MDA-N)	GI50 (K562)	GI50 (NCI-H522)	GI50 (KM12)	GI50 (SK-MEL-2)	GI50 (Hs-578T)	GI50 (SK-OV-3)	GI50 (BT-549)	GI50 (SF-539)	GI50 (MOLT-4)
O=C1Nc2ccccc2/C1=N/NS(=O)(=O)c1ccc(C(=O)O)cc1	> 100 µM (inactive)	> 100 µM (inactive)	> 100 µM (inactive)	> 100 µM (inactive)	> 100 µM (inactive)	> 100 µM (inactive)	> 100 µM (inactive)	> 100 µM (inactive)	> 100 µM (inactive)	> 100 µM (inactive)	> 100 µM (inactive)	> 100 µM (inactive)	> 100 µM (inactive)	> 100 µM (inactive)	> 100 µM (inactive)	> 100 µM (inactive)	> 100 µM (inactive)	> 100 µM (inactive)	> 100 µM (inactive)	> 100 µM (inactive)
COc1cc2oc(-c3ccc(O)cc3)c(OC3OC(C)C(O)C(O)C3O)c(=O)c2c(O)c1OC (stereo not given)	> 100 µM (inactive)	75.5 µM (inactive)	> 100 µM (inactive)	75.5 µM (inactive)	45.8 µM (inactive)	27 µM (inactive)	> 100 µM (inactive)	> 100 µM (inactive)	> 100 µM (inactive)	> 100 µM (inactive)	> 100 µM (inactive)	54.3 µM (inactive)	37 µM (inactive)	> 100 µM (inactive)	> 100 µM (inactive)	> 100 µM (inactive)	> 100 µM (inactive)	62.1 µM (inactive)	> 100 µM (inactive)	33 µM (inactive)
CC(=O)NC1=C(C)C(=O)c2c(nc3n2CCC3OC(=O)c2ccccc2)C1=N (stereo not given)	1.72 µM (inactive)	0.314 µM (active)	1.38 µM (inactive)	2.93 µM (inactive)	1.99 µM (inactive)	2.29 µM (inactive)	0.973 µM (active)	2.86 µM (inactive)	2.06 µM (inactive)	1.01 µM (active)	0.182 µM (active)	1.79 µM (inactive)	3.83 µM (inactive)	4.55 µM (inactive)	1.76 µM (inactive)	2.06 µM (inactive)	3.36 µM (inactive)	0.689 µM (active)	1.25 µM (inactive)	1.84 µM (inactive)

From ChEMBL document CHEMBL1201862, “PubChem BioAssay data set” (2004)
